Test results: patent US10765114B2, “4-amino-6-(pyridyl and 2-substitutedphenyl)-picolinates and 6-amino-2-(pyridyl and 2-substitutedphenyl)-pyrimidine-4-carboxylates and their use as herbicides” (Dow AgroSciences LLC, priority 2013, dated 2020)
Like-named read-outs stand apart in the source and are kept apart here.

Key:
[1] = system: Key Grass and Sedge Weeds as well as Grass Crops; experiment: Post-Emergent Test II (Table 6); assay type: in vivo; conditions: post-emergence, 336 h, 14 days after application; for pest or weed control at 70 g/ha: 70 g ai/ha; for pest or weed control at 140 g/ha: 140 g ai/ha
Method in brief: (§1)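 Plants grown in a greenhouse (~15 h photoperiod, 23-29° C day) to first or second true leaf stage were sprayed post-emergence at 187 L/ha with compound in acetone/DMSO-based aqueous spray containing crop oil concentrate and surfactant, applied at a high rate plus ½× to 1/16× serial rates. Injury was scored visually 14 days later, 0-100% versus untreated plants.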

[2] = system: Key Broadleaf Weed and Crop Species; experiment: Post-Emergent Test II (Table 5); assay type: in vivo; conditions: post-emergence, 336 h; for pest or weed control at 70 g/ha: application rate 70 (kg ai/ha; footnote: g ai/ha); for pest or weed control at 140 g/ha: application rate 140 (kg ai/ha; footnote: g ai/ha)
Method in brief: as §1

[3] = CYPSS, read-out: Visual Growth Reduction (%) 14 Days After Application CYPSS
[4] = DIGSA: crabgrass (Digitaria sanguinalis), read-out: Visual Growth Reduction (%) 14 Days After Application DIGSA
[5] = ECHSS, read-out: Visual Growth Reduction (%) 14 Days After Application ECHSS
[6] = ORYSS (crop), read-out: Visual Growth Reduction (%) 14 Days After Application ORYSS
[7] = SETFA: giant foxtail (Setaria faberi), read-out: Visual Growth Reduction (%) 14 Days After Application SETFA
[8] = SORVU: grain sorghum (Sorghum vulgare), read-out: Visual Growth Reduction (%) 14 Days After Application SORVU
[9] = TRZSS (crop), read-out: Visual Growth Reduction (%) 14 Days After Application TRZSS
[10] = ZEAMX: maize, corn (Zea mays), read-out: Visual Growth Reduction (%) 14 Days After Application ZEAMX
[11] = Abutilon theophrasti, ABUTH: velvetleaf (Abutilon theophrasti), read-out: Visual Growth Reduction (%) 14 Days After Application ABUTH
[12] = Amaranthus retroflexus, AMARE: redroot pigweed (Amaranthus retroflexus), read-out: Visual Growth Reduction (%) 14 Days After Application AMARE
[13] = Brassica napus, BRSSS: oilseed rape, canola (Brassica napus), read-out: Visual Growth Reduction (%) 14 Days After Application BRSSS
[14] = Chenopodium album, CHEAL: lambsquarters (Chenopodium album), read-out: Visual Growth Reduction (%) 14 Days After Application CHEAL
[15] = Euphorbia heterophylla, EPHHL: wild poinsettia (Euphorbia heterophylla), read-out: Visual Growth Reduction (%) 14 Days After Application EPHHL
[16] = Helianthus annuus, HELAN: sunflower (Helianthus annuus), read-out: Visual Growth Reduction (%) 14 Days After Application HELAN
[17] = Viola tricolor, VIOTR: wild pansy (Viola tricolor), read-out: Visual Growth Reduction (%) 14 Days After Application VIOTR

Row | SMILES | pest or weed control at 70 g/ha [1, 3] | pest or weed control at 140 g/ha [1, 3] | pest or weed control at 70 g/ha [1, 4] | pest or weed control at 140 g/ha [1, 4] | pest or weed control at 70 g/ha [1, 5] | pest or weed control at 140 g/ha [1, 5] | pest or weed control at 70 g/ha [1, 6] | pest or weed control at 140 g/ha [1, 6] | pest or weed control at 70 g/ha [1, 7] | pest or weed control at 140 g/ha [1, 7] | pest or weed control at 70 g/ha [1, 8] | pest or weed control at 140 g/ha [1, 8] | pest or weed control at 70 g/ha [1, 9] | pest or weed control at 140 g/ha [1, 9] | pest or weed control at 70 g/ha [1, 10] | pest or weed control at 140 g/ha [1, 10] | melting point | pest or weed control at 70 g/ha [2, 11] | pest or weed control at 140 g/ha [2, 11] | pest or weed control at 70 g/ha [2, 12] | other results
1 | COC(=O)c1nc(-c2ccc(Cl)c(Cl)c2C)cc(N)c1Cl [Compound 77] | 0 to 29% | 0 to 29% | 0 to 29% | 0 to 29% | 0 to 29% | 0 to 29% | 0 to 29% | 0 to 29% | 0 to 29% | 0 to 29% | 0 to 29% | 0 to 29% | 0 to 29% | 0 to 29% | 0 to 29% | 0 to 29% | 136 to 142 °C | 95 to 100% | 95 to 100% | 95 to 100% | pest or weed control at 140 g/ha [2, 12]: 95 to 100%; pest or weed control at 70 g/ha [2, 13]: 95 to 100%; pest or weed control at 140 g/ha [2, 13]: 95 to 100%; pest or weed control at 70 g/ha [2, 14]: 95 to 100%; pest or weed control at 140 g/ha [2, 14]: 95 to 100%; pest or weed control at 70 g/ha [2, 15]: 0 to 29%; pest or weed control at 140 g/ha [2, 15]: 0 to 29%; pest or weed control at 70 g/ha [2, 16]: 45 to 59%; pest or weed control at 140 g/ha [2, 16]: 60 to 74%; pest or weed control at 70 g/ha [2, 17]: 0 to 29%; pest or weed control at 140 g/ha [2, 17]: 0 to 29%
2 | COC(=O)c1nc(-c2ccc(C(F)(F)F)nc2)c(Cl)c(N)c1Cl [Compound 83] | 30 to 44% | 45 to 59% | 60 to 74% | 75 to 84% | 60 to 74% | 75 to 84% | 0 to 29% | 0 to 29% | 75 to 84% | 75 to 84% | 75 to 84% | 75 to 84% | 45 to 59% | 60 to 74% | 75 to 84% | 75 to 84% | 148 to 150 °C | 60 to 74% | 60 to 74% | 0 to 29% | pest or weed control at 140 g/ha [2, 12]: 0 to 29%; pest or weed control at 70 g/ha [2, 13]: 45 to 59%; pest or weed control at 140 g/ha [2, 13]: 45 to 59%; pest or weed control at 70 g/ha [2, 14]: 60 to 74%; pest or weed control at 140 g/ha [2, 14]: 75 to 84%; pest or weed control at 70 g/ha [2, 15]: 0 to 29%; pest or weed control at 140 g/ha [2, 15]: 30 to 44%; pest or weed control at 70 g/ha [2, 16]: 85 to 94%; pest or weed control at 140 g/ha [2, 16]: 85 to 94%; pest or weed control at 70 g/ha [2, 17]: 0 to 29%; pest or weed control at 140 g/ha [2, 17]: 0 to 29%
